Data published in patent publication US20200131196A1 (Mount Tam Therapeutics, Inc., priority 2017, published 2020).
pEC50, pIC50: −log10 of the molar value. Like-named read-outs stand apart in the source and are kept apart here.

Assays:
[1] = test system: Hs 852.T; test: OncoPanel cell proliferation assay, Hs 852.T; assay type: cell-based, human
Protocol: (§1) Cells were grown in RPMI 1640, 10% FBS, 2 mM L-alanyl-L-glutamine, 1 mM Na pyruvate, or a special medium. Cells were seeded into 384-well plates and incubated in a humidified atmosphere of 5% CO2 at 37° C. Compounds were added the day following cell seeding. At the same time, a time zero untreated cell plate was generated. After a 3-day incubation period, cells were fixed and stained to allow fluorescence imaging of nuclei. Compounds (1 mM stock solutions) were serially diluted in half-log steps from the highest test concentration ([…]), and assayed over 10 concentrations with a maximum assay concentration of 0.1% DMSO. Automated fluorescence microscopy was carried out using a Molecular Devices ImageXpress Micro XL high-content imager, and images were collected with a 4× objective. 16-bit TIFF images were acquired and analyzed with MetaXpress 5.1.0.41 software.
(§2) Cell proliferation was measured by the fluorescence intensity of an incorporated nuclear dye. The output is referred to as the relative cell count, where the measured nuclear intensity is transformed to percent of control (POC) using the following formula: […]
(§3) Cellular response parameters were calculated using nonlinear regression to a sigmoidal single-site dose response model:
(§4) EC50 is the test compound concentration at the curve inflection point or half the effective response (parameter C of the fitted curve solution). GI50 is the concentration needed to reduce the observed growth by half (midway between the curve maximum and the time zero value). “Cell Count Activity Area” is an estimate of the integrated area above the curve (Barretina, et al. The Cancer Cell Line Encyclopedia enables predictive modelling of anticancer drug sensitivity. Nature 483: 603-607). […] In rare instances, values <0 or >10 may be observed. […] Curve-fitting, calculations, and report generation was performed using a custom data reduction engine and MathIQ based software (AIM).

[2] = test system: A101D; test: OncoPanel cell proliferation assay, A101D; assay type: cell-based, human
Protocol: as §1, §2, §3, §4

[3] = test system: Hs 729; test: OncoPanel cell proliferation assay, Hs 729; assay type: cell-based, human
Protocol: as §1, §2, §3, §4

[4] = test system: A431; test: OncoPanel cell proliferation assay, A431; assay type: cell-based, human
Protocol: as §1, §2, §3, §4

[5] = test system: OVCAR3; test: OncoPanel cell proliferation assay, OVCAR3
Protocol: Cells were seeded into 384-well plates and incubated in a humidified atmosphere of 5% CO2 at 37° C. Compounds were added the day following cell seeding. At the same time, a time zero untreated cell plate was generated. After a 3-day incubation period, cells were fixed and stained to allow fluorescence imaging of nuclei. Compounds (1 mM stock solutions) were serially diluted in half-log steps from the highest test concentration (1 micromol), and assayed over 10 concentrations with a maximum assay concentration of 0.1% DMSO. Automated fluorescence microscopy was carried out using a Molecular Devices ImageXpress Micro XL high-content imager, and images were collected with a 4× objective. 16-bit TIFF images were acquired and analyzed with MetaXpress 5.1.0.41 software.
GI50 is the concentration needed to reduce the observed growth by half (midway between the curve maximum and the time zero value). […] In rare instances, values <0 or >10 may be observed. […] Curve-fitting, calculations, and report generation was performed using a custom data reduction engine and MathIQ based software (AIM).

[6] = test system: ST486; test: OncoPanel cell proliferation assay, ST486; assay type: cell-based, human
Protocol: as §1, §2, §3, §4

[7] = Homo sapiens, read-out: Cell Count EC50
[8] = Homo sapiens, read-out: Cell Count GI50
[9] = Homo sapiens, read-out: Cell Count IC50

CO[C@H]1C[C@@H]2CC[C@@H](C)[C@@](O)(O2)C(=O)C(=O)N2CCCC[C@H]2C(=O)O[C@H]([C@H](C)C[C@H]2C[C@H]3C[C@@H]2C[C@@H]3O)CC(=O)[C@H](C)/C=C(\C)[C@@H](O)[C@@H](OC)C(=O)[C@H](C)C[C@H](C)/C=C/C=C/C=C/1C [Formula II, C37-[(1R,2S,4R,5S)-5-hyhroxybicyclo[2.2.1]heptane] rapamycin]
Cell Count Activity Area [1]: 0.95 | Relative cell count (%) Mean ([1]; 1.00E+00 microM): 72.0% | Relative cell count (%) Mean ([1]; 1.00E-01 microM): 80.1% | Relative cell count (%) Mean ([1]; 1.00E-02 microM): 91.2% | Relative cell count (%) Mean ([1]; 1.00E-03 microM): 92.9% | Relative cell count (%) Mean ([1]; 1.01E-04 microM): 98.7% | Relative cell count (%) Mean ([1]; 3.16E-01 microM): 73.2% | Relative cell count (%) Mean ([1]; 3.17E-02 microM): 82.3% | Relative cell count (%) Mean ([1]; 3.17E-03 microM): 90.6% | Relative cell count (%) Mean ([1]; 3.18E-04 microM): 92.8% | Relative cell count (%) Mean ([1]; 3.18E-05 microM): 95.0% | pEC50 [1, 7]: < 6.00 | GI50 [1, 8]: > 1000 nM | pIC50 [1, 9]: < 6.00 | Cell Count Activity Area [2]: 3.79 | Relative cell count (%) Mean ([2]; 1.00E+00 microM): 52.5% | Relative cell count (%) Mean ([2]; 1.00E-01 microM): 54.3% | Relative cell count (%) Mean ([2]; 1.00E-02 microM): 62.0% | Relative cell count (%) Mean ([2]; 1.00E-03 microM): 75.1% | Relative cell count (%) Mean ([2]; 1.01E-04 microM): 96.5% | Relative cell count (%) Mean ([2]; 3.16E-01 microM): 59.6% | Relative cell count (%) Mean ([2]; 3.17E-02 microM): 56.2% | Relative cell count (%) Mean ([2]; 3.17E-03 microM): 71.5% | Relative cell count (%) Mean ([2]; 3.18E-04 microM): 82.7% | Relative cell count (%) Mean ([2]; 3.18E-05 microM): 100.8% | pEC50 [2, 7]: 9.44 | GI50 [2, 8]: 1.36 nM | pIC50 [2, 9]: 7.25 | Cell Count Activity Area [3]: 0.91 | Relative cell count (%) Mean ([3]; 1.00E+00 microM): 73.3% | Relative cell count (%) Mean ([3]; 1.00E-01 microM): 81.0% | Relative cell count (%) Mean ([3]; 1.00E-02 microM): 91.1% | Relative cell count (%) Mean ([3]; 1.00E-03 microM): 97.1% | Relative cell count (%) Mean ([3]; 1.01E-04 microM): 105.0% | Relative cell count (%) Mean ([3]; 3.16E-01 microM): 74.8% | Relative cell count (%) Mean ([3]; 3.17E-02 microM): 79.3% | Relative cell count (%) Mean ([3]; 3.17E-03 microM): 98.0% | Relative cell count (%) Mean ([3]; 3.18E-04 microM): 93.3% | Relative cell count (%) Mean ([3]; 3.18E-05 microM): 93.2% | pEC50 [3, 7]: < 6.00 | GI50 [3, 8]: 101 nM | pIC50 [3, 9]: < 6.00 | Cell Count Activity Area [4]: 1.43 | Relative cell count (%) Mean ([4]; 1.00E+00 microM): 71.4% | Relative cell count (%) Mean ([4]; 1.00E-01 microM): 80.3% | Relative cell count (%) Mean ([4]; 1.00E-02 microM): 85.0% | Relative cell count (%) Mean ([4]; 1.00E-03 microM): 94.6% | Relative cell count (%) Mean ([4]; 1.01E-04 microM): 103.1% | Relative cell count (%) Mean ([4]; 3.16E-01 microM): 75.3% | Relative cell count (%) Mean ([4]; 3.17E-02 microM): 81.8% | Relative cell count (%) Mean ([4]; 3.17E-03 microM): 96.4% | Relative cell count (%) Mean ([4]; 3.18E-04 microM): 102.0% | Relative cell count (%) Mean ([4]; 3.18E-05 microM): 100.9% | pEC50 ([4]; Homo sapiens, A-431, Skin, Head/Neck, summary Table 5, read-out: EC50): 7.92 | pEC50 ([4]; Homo sapiens, A-431, read-out: Cell Count EC50): 7.92 | GI50 ([4]; Homo sapiens, A-431, read-out: Cell Count GI50): > 1000 nM | pIC50 ([4]; Homo sapiens, A-431, read-out: Cell Count IC50): < 6.00 | pEC50 ([5]; Homo sapiens): 7.37 | pEC50 ([5]; Homo sapiens, OVCAR-3, read-out: Cell Count EC50): 7.37 | GI50 ([5]; Homo sapiens, OVCAR-3, read-out: Cell Count GI50): 301 nM | pIC50 ([5]; Homo sapiens, OVCAR-3, read-out: Cell Count IC50): < 6.00 | Cell Count Activity Area ([5]; OVCAR3): 1.09 | Relative cell count (%) Mean ([5]; OVCAR3, 1.00E+00 microM): 70.8% | Relative cell count (%) Mean ([5]; OVCAR3, 1.00E-01 microM): 79.0% | Relative cell count (%) Mean ([5]; OVCAR3, 1.00E-02 microM): 104.2% | Relative cell count (%) Mean ([5]; OVCAR3, 1.00E-03 microM): 101.9% | Relative cell count (%) Mean ([5]; OVCAR3, 1.01E-04 microM): 116.6% | Relative cell count (%) Mean ([5]; OVCAR3, 3.16E-01 microM): 69.1% | Relative cell count (%) Mean ([5]; OVCAR3, 3.17E-02 microM): 88.4% | Relative cell count (%) Mean ([5]; OVCAR3, 3.17E-03 microM): 98.5% | Relative cell count (%) Mean ([5]; OVCAR3, 3.18E-04 microM): 100.4% | Relative cell count (%) Mean ([5]; OVCAR3, 3.18E-05 microM): 99.9% | Cell Count Activity Area [6]: 3.05 | Relative cell count (%) Mean ([6]; 1.00E+00 microM): 55.2% | Relative cell count (%) Mean ([6]; 1.00E-01 microM): 56.2% | Relative cell count (%) Mean ([6]; 1.00E-02 microM): 57.6% | Relative cell count (%) Mean ([6]; 1.00E-03 microM): 72.7% | Relative cell count (%) Mean ([6]; 1.01E-04 microM): 90.5% | Relative cell count (%) Mean ([6]; 3.16E-01 microM): 49.9% | Relative cell count (%) Mean ([6]; 3.17E-02 microM): 55.2% | Relative cell count (%) Mean ([6]; 3.17E-03 microM): 58.2% | Relative cell count (%) Mean ([6]; 3.18E-04 microM): 77.5% | Relative cell count (%) Mean ([6]; 3.18E-05 microM): 92.2% | pEC50 [6, 7]: 9.24 | GI50 [6, 8]: 1.17 nM
